Columns and labels:
[1] = tested on: NTHI biofilm; assay: in vitro disruption of established biofilms, CLSM and COMSTAT; format: cell-based, Nontypeable Haemophilus influenzae; details: 200 nM added at 24 h, 16 h exposure
Procedure: FIGS. 5A-5E: Anti-biofilm effect of HMGB1 variants on high priority bacterial pathogens. Indicated HMGB1 variants or antibodies against DNABII proteins (α-1HFEc 1gG, 1 μM) were added at 24 h to the respective preformed bacterial biofilms, in vitro. After 16 h of Incubation, biofilms were stained with LIVE/DEAD®, then visualized via confocal laser scanning microscopy. Images were analyzed by COMSTAT to calculate average thickness and comparison to control was plotted. (FIG. 5A) Full-length HMGB1 isoforms (200 nM unless otherwise indicated) added to UPEC, B. cenocepacia, NTHI, or ESKAPE pathogens. 800 nM rHMGB1 and 200 nM mHMGB1 were added for S. aureus (ESKAPE). 800 nM rHMGB1, 800 nM mHMGB1, or 3.3 μM of α-1HFEc 1gG were added for E. faecium (ESKAPE) and were incubated for 1 h as opposed to 16 h to avoid potential degradation by E. faecium proteases. (FIG. 5B) Representative images of UPEC biofilms incubated with increasing concentrations of rHMGB1. (FIG. 5C) Individual domains of HMGB1 (200 nM) were tested for anti-biofilm activity as above (dotted line indicates control values). Bars represent the SEM. Statistical significance compared to control was assessed with unpaired t-tests, *P<0.05. […] (FIGS. 5D-5E) HMGB1 and variants disrupt preformed Klebsiella pneumoniae biofilms. rHMGB1, HMGB1 C45S (mHMGB1), bovine HMGB1 (bHMGB1), B box, B Box C106S (mB Box), A Box, and A+B Box were added (200 nM) at 24 h to preformed K. pneumoniae biofilms. After 16 h of incubation, biofilms were stained with LIVE/DEAD®, then visualized via confocal laser scanning microscopy. Images were analyzed by COMSTAT to calculate average thickness and total biomass. Error bars represent the SEM. ***P<0.0001; ns=not significant.
HMGB1 disrupts pathogenic biofilms: To test the effect of HMGB1 on bacterial biofilms (FIG. 5), Applicant cloned (IMPACT®, NEB Ipswich, MA), expressed (in E. coli), and purified (heparin sepharose chromatography to >95% purity) tagless human recombinant HMGB1 (rHMGB1) and an engineered C45 S variant (mHMGB1) that mimics the reduced form of HMGB1. rHMGB1 readily forms an intramolecular disulfide bond between C23 and C45 that contributes to pro-inflammatory activity whereas mHMGB1 cannot. These HMGB1 isoforms were evaluated for ability to disrupt established biofilms (formed for 24 h prior to addition). After a 16 h exposure to a single dose of rHMGB1 (200 nM; ˜25-fold greater than typical sepsis serum concentration, but not able to directly induce sepsis), biofilms formed by a wide variety of high priority species were stained with LIVE/DEAD®, analyzed using confocal laser scanning microscopy (CLSM) and COMSTAT analysis and compared to control biofilms. […] Preliminary analysis of PTMs by LC-MS/MS analysis (MS Bioworks, LLC Ann Arbor, MI) indicated minimal modification of both rHMGB1 and nHMGB1 (<20% of the observed peptides had any given PTM, FIG. 1C). […] Thus, while there are intrinsic differences in sensitivity among pathogens, the biofilms formed by all of the tested high priority pathogens were susceptible to a single dose of these non-antimicrobial compounds.
HMGB1 domain structure and anti-biofilm activity: Applicant then produced recombinant HMGB1 truncation variants, of 1) the A Box, a self-contained DNA-binding domain (residues 1-89); 2) an A-B Boxes construct (lacks the C tail; residues 1-185); and 3) the B Box (residues 80 to 176, FIGS. 1A and 1C). […]

[2] = tested on: established biofilms formed by high priority human pathogens; assay: in vitro disruption of established biofilms of high priority pathogens (panel); format: cell-based, UPEC, B. cenocepacia, NTHI, ESKAPE pathogens; details: single dose 200 nM, biofilms formed 24 h, 16 h exposure
Procedure: (§1) FIGS. 5A-5E: Anti-biofilm effect of HMGB1 variants on high priority bacterial pathogens. Indicated HMGB1 variants or antibodies against DNABII proteins (α-1HFEc 1gG, 1 μM) were added at 24 h to the respective preformed bacterial biofilms, in vitro. After 16 h of Incubation, biofilms were stained with LIVE/DEAD®, then visualized via confocal laser scanning microscopy. Images were analyzed by COMSTAT to calculate average thickness and comparison to control was plotted. (FIG. 5A) Full-length HMGB1 isoforms (200 nM unless otherwise indicated) added to UPEC, B. cenocepacia, NTHI, or ESKAPE pathogens. 800 nM rHMGB1 and 200 nM mHMGB1 were added for S. aureus (ESKAPE). […] Statistical significance compared to control was assessed with unpaired t-tests, *P<0.05. […] Images were analyzed by COMSTAT to calculate average thickness and total biomass. […]
(§2) HMGB1 disrupts pathogenic biofilms: To test the effect of HMGB1 on bacterial biofilms (FIG. 5), Applicant cloned (IMPACT®, NEB Ipswich, MA), expressed (in E. coli), and purified (heparin sepharose chromatography to >95% purity) tagless human recombinant HMGB1 (rHMGB1) and an engineered C45 S variant (mHMGB1) that mimics the reduced form of HMGB1. rHMGB1 readily forms an intramolecular disulfide bond between C23 and C45 that contributes to pro-inflammatory activity whereas mHMGB1 cannot. […]

[3] = tested on: biofilms present in CF sputum; assay: disruption of CF sputum (optical density of surrounding media); details: CF sputum suspensions in PBS, 37° C.; compared with Pulmozyme and anti-DNABII
Procedure: FIGS. 10A-10B: HMGB1 In specimens from biofilm-associated diseases. (FIG. 10A) Sections of OCT-embedded mucosal biomass from an NTHI-infected chinchilla middle ear were co-labeled for HMGB1 and DNABII protein for immunofluorescence microscopy. Double stranded eDNA was labeled with DAPI (white). (FIG. 10B) CF sputum incubated with antibiofilm treatments (PBS, 1:10 rabbit a-1HFEc, serum, 100 U/ml Pulmozyme® (DNase), 1 mM rHMGB1) at 37° C. for […] and optical density of surrounding media was measured at 0 hour and 2 hour.
HMGB1 disrupts biofilms present in clinical specimens: Biofilms at chronic disease sites (e.g. CF lung), consist of multiple species and by nature are difficult to eradicate. It has been shown that anti-DNABII antibodies to disrupt biofilms present in CF sputum.

[4] = tested on: S. aureus biofilm; assay: in vitro disruption of established biofilms, CLSM and COMSTAT; format: cell-based; details: 800 nM rHMGB1 used (FIG. 5A)
Procedure: as §1, §2

[5] = tested on: E. faecium biofilm; assay: as above; format: cell-based; details: 800 nM rHMGB1, incubated 1 h (FIG. 5A)
Procedure: as §1, §2

[6] = tested on: B. cenocepacia biofilm; format: cell-based, Burkholderia cenocepacia; details: 200 nM added at 24 h, 16 h exposure
Procedure: Indicated HMGB1 variants or antibodies against DNABII proteins (α-1HFEc 1gG, 1 μM) were added at 24 h to the respective preformed bacterial biofilms, in vitro. After 16 h of Incubation, biofilms were stained with LIVE/DEAD®, then visualized via confocal laser scanning microscopy. Images were analyzed by COMSTAT to calculate average thickness and comparison to control was plotted. (FIG. 5A) Full-length HMGB1 isoforms (200 nM unless otherwise indicated) added to UPEC, B. cenocepacia, NTHI, or ESKAPE pathogens. 800 nM rHMGB1 and 200 nM mHMGB1 were added for S. aureus (ESKAPE). 800 nM rHMGB1, 800 nM mHMGB1, or 3.3 μM of α-1HFEc 1gG were added for E. faecium (ESKAPE) and were incubated for 1 h as opposed to 16 h to avoid potential degradation by E. faecium proteases. […] (FIG. 5C) Individual domains of HMGB1 (200 nM) were tested for anti-biofilm activity as above (dotted line indicates control values). Bars represent the SEM. Statistical significance compared to control was assessed with unpaired t-tests, *P<0.05. […] After 16 h of incubation, biofilms were stained with LIVE/DEAD®, then visualized via confocal laser scanning microscopy. Images were analyzed by COMSTAT to calculate average thickness and total biomass. Error bars represent the SEM. ***P<0.0001; ns=not significant.

Molecule: rHMGB1: tagless human recombinant full length HMGB1 (1-215) expressed in E. coli
- disruption of established NTHI biofilms [1]: not as responsive
- disruption of established biofilms (average thickness and biomass) of high priority species [2]: significant reduction
- disruption of established biofilms (average thickness and biomass) of high priority species ([2]; listed as Full length recombinant HMGB1): significantly disrupt
- disruption of CF sputum [3]: can disrupt biofilms present in CF sputum
- concentration needed to disrupt S. aureus biofilm [4]: required a higher (albeit non-bactericidal) concentration
- concentration needed to disrupt E. faecium biofilm [5]: required a higher (albeit non-bactericidal) concentration

B1: B-linker Box: HMGB1 B Box with N- and C-terminal linker (80-179; 80 to 176 in b258), 97 amino acid (protein, UniProt P09429 80-179, looked up, fragment)
chain: PPKGETKKKFKDPNAPKRPPSAFFLFCSEYRPKIKGEHPGLSIGDVAKKLGEMWNNTAADDKQPYEKKAAKLKEKYEKDIAAYRAKGKPDAAKKGVVKAE
- disruption of established NTHI biofilms [1]: retained full anti-biofilm activity
- disruption of established Bc biofilms [6]: retained full anti-biofilm activity
- disruption of CF sputum [3]: disrupted sputum effectively
